# Laboratory results from patent US8343477B2, “Inhibitors of hepatitis C virus” (Bristol-Myers Squibb Company, priority 2006, dated 2013).
# Assays:
# [1] = biological target: HCV NS3/4A protease complex, BMS strain (Hepatitis C virus genotype 1a, UniProt P27958); test: FRET peptide assay to monitor HCV NS3/4A proteolytic activity, BMS strain; format: biochemical, HCV genotype 1a; conditions: read-out: IC50 against the NS3/4A BMS strain in the enzyme assay
# Source text: (§1) HCV NS3 protease complexes, derived from the BMS strain, H77 strain or J4L6S strain, were generated, as described below. These purified recombinant proteins were generated for use in a homogeneous assay (see below) to provide an indication of how effective compounds of the present disclosure would be in inhibiting HCV NS3 proteolytic activity.
# Serum from an HCV-infected patient was obtained from Dr. T. Wright, San Francisco Hospital. […]
# In order to monitor HCV NS3/4A protease activity, an NS3/4A peptide substrate was used. […] The peptide also contains a fluorescence donor, EDANS, near one end of the peptide and an acceptor, DABCYL, near the other end. The fluorescence of the peptide is quenched by […] resonance energy transfer (RET) between the donor and the acceptor, but as the NS3 protease cleaves the peptide the products are released from RET quenching and the fluorescence of the donor becomes apparent.
# The peptide substrate was incubated with one of the three recombinant NS3/4A protease complexes, in the absence or presence of a compound of the present disclosure. The inhibitory effects of a compound was determined by monitoring the formation of fluorescent reaction product in real time using a Cytofluor Series 4000. […]
# [2] = biological target: T1, HCV NS3/4A protease complex, J4L6S strain (Hepatitis C virus genotype 1b, UniProt O92972, C1454S/C1711G); test: FRET peptide assay to monitor HCV NS3/4A proteolytic activity, J4L6S strain; format: biochemical, HCV genotype 1b; conditions: J4L6S strain (1b genotype)
# T1 construct: DNA encoding the recombinant HCV NS3/4A protease complex (amino acids 1027 to 1711) for these strains; inferred from pET21b vector and Ni-NTA purification; made in house; host or cells: Escherichia coli BL21 (DE3), pET21b
# Source text: as §1
# (§2) Serum from an HCV-infected patient was obtained from Dr. T. Wright, San Francisco Hospital. An engineered full-length cDNA (compliment deoxyribonucleic acid) template of the HCV genome (BMS strain) was constructed from DNA fragments obtained by reverse transcription-PCR(RT-PCR) of serum RNA (ribonucleic acid) and using primers selected on the basis of homology between other genotype 1a strains. From the determination of the entire genome sequence, a genotype 1a was assigned to the HCV isolate according to the classification of Simmonds et al. (See P Simmonds, K A Rose, S Graham, S W Chan, F McOmish, B C Dow, E A Follett, P L Yap and H Marsden, J. Clin. Microbiol., 31(6), 1493-1503 (1993)). […]
# [3] = biological target: T2, HCV NS3/4A protease complex, H77 strain (Hepatitis C virus genotype 1a, UniProt P27958, C1454S/C1711G); test: FRET peptide assay to monitor HCV NS3/4A proteolytic activity, H77 strain; format: biochemical, HCV genotype 1a; conditions: H77 strain (1a genotype)
# T2 construct: DNA encoding the recombinant HCV NS3/4A protease complex (amino acids 1027 to 1711) for these strains; inferred from pET21b vector and Ni-NTA purification; made in house; host or cells: Escherichia coli BL21 (DE3), pET21b
# Source text: as §1, §2
# [4] = tested on: human pancreatic chymotrypsin; test: Specificity assay, chymotrypsin (pNA substrate); format: biochemical; conditions: read-out: Chymotrypsin activity in the specificity assays (IC50)
# Method: The specificities of compounds of the present disclosure were determined against a variety of serine proteases: human neutrophil elastase (HNE), porcine pancreatic elastase (PPE) and human pancreatic chymotrypsin and one cysteine protease: human liver cathepsin B. In all cases, a 96-well plate format protocol using colorimetric p-nitroaniline (pNA) substrate or fluorometric Amino-Methyl-Coumarin (AMC) substrate, specific for each enzyme was used as described previously (PCT Patent Application No. WO 00/09543) with some modifications. All enzymes were purchased from Sigma or EMDbiosciences while the substrates were from Bachem.
# Each pNA assay included a 2 h enzyme-inhibitor pre-incubation at room temperature followed by addition of substrate and hydrolysis to ˜15% conversion as measured on a Spectramax Pro microplate reader. The cathepsin B assay was initiated by adding substrate to a 10 min enzyme-inhibitor pre-incubation at room temperature, and the assay plate measured immediately using the Cytofluor Series 4000. Compound concentrations varied from 100 to 0.4 μM depending on their potency.
# 50 mM Tris(hydroxymethyl)aminomethane hydrochloride (Tris-HCl) pH 8, 0.5 M Sodium Sulfate (Na2SO4), 50 mM NaCl, 0.1 mM EDTA, 3% DMSO, 0.01% Tween-20 with: […]
# The percentage of inhibition was calculated using the formula: [1−((UVinh−UVblank)/(UVctl−UVblank))]×100 […]
# Sequence of HCV NS3/4A protease complex, BMS strain (P27958 1027-1711, one chain of several): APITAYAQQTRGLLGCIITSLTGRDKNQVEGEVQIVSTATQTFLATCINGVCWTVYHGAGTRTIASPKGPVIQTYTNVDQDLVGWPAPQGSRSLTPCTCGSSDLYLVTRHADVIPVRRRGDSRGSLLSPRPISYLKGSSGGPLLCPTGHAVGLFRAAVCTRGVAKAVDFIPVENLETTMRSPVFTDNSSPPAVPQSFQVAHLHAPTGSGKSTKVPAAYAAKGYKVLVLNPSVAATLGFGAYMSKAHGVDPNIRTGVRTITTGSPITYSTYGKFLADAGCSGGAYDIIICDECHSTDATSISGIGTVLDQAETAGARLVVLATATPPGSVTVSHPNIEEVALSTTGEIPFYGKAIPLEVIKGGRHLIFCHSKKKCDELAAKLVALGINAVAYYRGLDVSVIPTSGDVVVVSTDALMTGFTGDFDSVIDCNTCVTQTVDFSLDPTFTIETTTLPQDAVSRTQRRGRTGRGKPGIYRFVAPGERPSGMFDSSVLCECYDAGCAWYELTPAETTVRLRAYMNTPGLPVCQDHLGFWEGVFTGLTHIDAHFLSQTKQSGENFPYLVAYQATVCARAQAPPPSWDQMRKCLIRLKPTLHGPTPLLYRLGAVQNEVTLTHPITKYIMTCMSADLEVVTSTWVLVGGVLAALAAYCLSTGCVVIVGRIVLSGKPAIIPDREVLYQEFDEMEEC
# T2 sequence (P27958 1027-1711 C1454S/C1711G, one chain of several): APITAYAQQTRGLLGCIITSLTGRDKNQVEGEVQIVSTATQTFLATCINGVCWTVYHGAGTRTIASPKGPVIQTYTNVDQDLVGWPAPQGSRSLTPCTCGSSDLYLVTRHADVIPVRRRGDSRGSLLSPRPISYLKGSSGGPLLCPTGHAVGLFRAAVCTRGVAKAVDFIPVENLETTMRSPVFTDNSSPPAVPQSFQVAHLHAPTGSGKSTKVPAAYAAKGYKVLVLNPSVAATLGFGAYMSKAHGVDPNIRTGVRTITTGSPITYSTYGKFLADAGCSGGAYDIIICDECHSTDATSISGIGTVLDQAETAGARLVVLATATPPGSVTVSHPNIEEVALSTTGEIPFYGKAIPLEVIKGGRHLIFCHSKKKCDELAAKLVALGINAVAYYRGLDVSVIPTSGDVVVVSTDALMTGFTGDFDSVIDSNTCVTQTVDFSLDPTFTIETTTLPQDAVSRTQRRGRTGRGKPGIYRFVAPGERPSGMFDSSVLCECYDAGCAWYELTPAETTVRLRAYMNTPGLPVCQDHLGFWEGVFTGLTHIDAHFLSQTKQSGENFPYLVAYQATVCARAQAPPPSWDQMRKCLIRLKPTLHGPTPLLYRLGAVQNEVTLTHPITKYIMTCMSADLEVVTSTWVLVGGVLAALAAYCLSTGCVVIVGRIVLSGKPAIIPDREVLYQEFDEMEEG
# T1 sequence (O92972 1027-1711 C1454S/C1711G, one chain of several): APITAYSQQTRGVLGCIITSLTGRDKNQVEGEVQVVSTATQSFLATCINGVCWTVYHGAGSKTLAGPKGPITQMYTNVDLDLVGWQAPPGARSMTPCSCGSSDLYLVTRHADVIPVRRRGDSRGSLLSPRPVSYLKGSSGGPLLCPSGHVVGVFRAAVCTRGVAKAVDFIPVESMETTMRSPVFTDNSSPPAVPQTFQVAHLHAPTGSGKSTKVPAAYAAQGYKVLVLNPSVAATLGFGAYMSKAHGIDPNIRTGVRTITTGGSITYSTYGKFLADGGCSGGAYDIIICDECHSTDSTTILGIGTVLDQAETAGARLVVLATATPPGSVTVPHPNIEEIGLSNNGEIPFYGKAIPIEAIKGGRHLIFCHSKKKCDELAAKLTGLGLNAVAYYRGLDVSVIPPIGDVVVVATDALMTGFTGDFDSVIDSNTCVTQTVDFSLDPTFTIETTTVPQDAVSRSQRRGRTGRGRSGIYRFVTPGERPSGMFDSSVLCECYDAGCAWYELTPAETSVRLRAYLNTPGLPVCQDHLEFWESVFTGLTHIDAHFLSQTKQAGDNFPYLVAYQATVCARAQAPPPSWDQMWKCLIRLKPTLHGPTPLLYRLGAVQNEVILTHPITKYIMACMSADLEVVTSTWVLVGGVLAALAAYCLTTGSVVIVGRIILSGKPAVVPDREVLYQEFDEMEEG
Compound,IC50 [1],IC50 [2],IC50 [3],IC50 [4],melting point
CC(C)(C)OC(=O)N[C@H]1CN(C2CC2)CCC/C=C\C2C[C@@]2(C(=O)NS(=O)(=O)C2CC2)NC(=O)[C@@H]2C[C@@H](Oc3ccccn3)CN2C1=O (some centres unmarked) [Compound 1],98 nM,12 nM,18 nM,> 100000 nM,
"CC(C)(C)OC(=O)N[C@H]1CCCOC/C=C\[C@@H]2C[C@@]2(C(=O)NS(=O)(=O)C2CC2)NC(=O)[C@@H]2C[C@@H](OCc3ccccc3)CN2C1=O [Compound 5, (1S,4R,6S,14S,18R, 7-cis)-18-benzyloxy-14-tert-butoxycarbonylamino-4-cyclopropanesulfonylaminocarbonyl-2,15-dioxo-3,16-diaza-10-oxatricyclo[14.3.0.04,6]nonadec-7-ene]",,,,,147 to 149 °C
